Source: patent US11912693B2, “Compounds for modulating S1P1 activity and methods of using the same” (TREVENA, INC., priority 2017, dated 2024)

How the values were obtained:
[1] = molecular target: T1, human sphingosine-1-phosphate receptor 1 (S1P1) (Homo sapiens (Human), UniProt P21453); assay: β-Arrestin2 recruitment assay (PathHunter), S1P1 CHO-K1 cells; format: cell-based; details: for Emax: CHO-K1, read-out: hS1P1 B-arrestin2 SPAN
In short: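 Enzyme-fragment complementation read-out: agonist-driven β-arrestin2 binding to ProLink-tagged human S1P1 in stable CHO-K1 cells restores β-galactosidase, measured 1 h at room temperature after a 60 min 37° C. compound incubation. Potency as pEC50, efficacy relative to fingolimod (SPAN).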
Target sequence in this assay (P21453 whole entry, looked up, the tested form may be a part): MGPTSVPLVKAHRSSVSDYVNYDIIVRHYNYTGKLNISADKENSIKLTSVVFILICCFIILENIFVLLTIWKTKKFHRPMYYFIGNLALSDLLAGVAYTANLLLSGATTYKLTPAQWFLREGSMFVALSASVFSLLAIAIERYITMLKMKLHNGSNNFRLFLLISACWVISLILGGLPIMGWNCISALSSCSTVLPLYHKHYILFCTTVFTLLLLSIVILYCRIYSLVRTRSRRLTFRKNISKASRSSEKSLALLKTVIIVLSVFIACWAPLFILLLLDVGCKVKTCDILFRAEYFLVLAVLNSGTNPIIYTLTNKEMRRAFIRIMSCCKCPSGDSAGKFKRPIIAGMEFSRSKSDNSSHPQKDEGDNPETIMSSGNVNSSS
Target sequence in this assay (P32121 whole entry partner, looked up, the tested form may be a part): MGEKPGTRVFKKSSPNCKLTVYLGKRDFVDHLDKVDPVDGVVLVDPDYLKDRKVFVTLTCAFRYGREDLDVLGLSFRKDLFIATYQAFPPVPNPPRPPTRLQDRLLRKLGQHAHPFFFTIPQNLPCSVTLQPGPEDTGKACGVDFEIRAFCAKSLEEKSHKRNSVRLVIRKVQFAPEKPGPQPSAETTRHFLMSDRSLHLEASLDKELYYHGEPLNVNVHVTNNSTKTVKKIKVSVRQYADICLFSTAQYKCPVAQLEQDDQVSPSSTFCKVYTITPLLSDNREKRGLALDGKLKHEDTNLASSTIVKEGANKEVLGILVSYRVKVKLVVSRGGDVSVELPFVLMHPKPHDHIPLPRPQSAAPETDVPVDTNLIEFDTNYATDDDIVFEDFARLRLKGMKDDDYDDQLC

[2] = molecular target: T1, human sphingosine-1-phosphate receptor 1 (S1P1); assay: Inhibition of cAMP production (HTRF cAMP HiRange), S1P1 CHO-K1 cells; format: cell-based; details: for Emax: CHO-K1, read-out: hS1P1 cAMP SPAN
In short: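 CHO-K1 cells stably co-expressing human S1P1 (C-terminal Prolink tag) and EA-β-arrestin2 were grown in AssayComplete Media 6 at 37° C. and 5% CO2, plated, and incubated overnight. Agonist-driven inhibition of intracellular cAMP was read by TR-FRET with the HTRF cAMP HiRange kit on a PheraStar reader. Potency is pEC50, and efficacy (SPAN) is normalized to fingolimod.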
Target sequence in this assay (P21453 whole entry, looked up, the tested form may be a part): as the sequence (P21453 whole entry, looked up, the tested form may be a part) above

[3] = β-arrestin2 recruitment, S1P1 CHO-K1 cells
[4] = inhibition of cAMP production, S1P1 CHO-K1 cells
[5] = efficacy (SPAN) normalized to fingolimod

| SMILES | hS1P1 B-arrestin2 pEC50 [1, 3] | hS1P1 cAMP pEC50 [2, 4] | further results |
| --- | --- | --- | --- |
| Cc1nc2cc(-c3nc(-c4ccc5c(c4)nnn5C(C)C)no3)ccc2[nH]1 [Compound 571, 5-[5-(2-methyl-1H-1,3-benzodiazol-5-yl)-1,2,4-oxadiazol-3-yl]-1-(propan-2-yl)-1H-1,2,3-benzotriazole] | >5 | >6.5 | – |
| CC(C)Nc1ccc(-c2nnc(-c3ccc4c(c3)ncn4C)o2)cc1C#N [Compound 572, 5-[5-(1-methyl-1H-1,3-benzodiazol-5-yl)-1,3,4-oxadiazol-2-yl]-2-[(propan-2-yl)amino]benzonitrile] | <5 | <6.5 | – |
| Cn1cnc2cc(-c3nnc(-c4ccc(NCC(F)F)c(C#N)c4)o3)ccc21 [Compound 573, 2-[(2,2-difluoroethyl)amino]-5-[5-(1-methyl-1H-1,3-benzodiazol-5-yl)-1,3,4-oxadiazol-2-yl]benzonitrile] | <5 | <6.5 | – |
| CC(C)Nc1ccc(-c2nnc(-c3ccc4c(c3)ncn4CCO)o2)cc1C#N [Compound 574, 5-{5-[1-(2-hydroxyethyl)-1H-1,3-benzodiazol-5-yl]-1,3,4-oxadiazol-2-yl}-2-[(propan-2-yl)amino]benzonitrile] | <5 | <6.5 | – |
| COc1ccccc1-c1nc(-c2ccc3c(c2)nnn3C(C)C)co1 [Compound 575, 5-[2-(2-methoxyphenyl)-1,3-oxazol-4-yl]-1-(propan-2-yl)-1H-1,2,3-benzotriazole] | >5 | >6.5 | Emax [1, 5]: > 75%; Emax [2, 5]: > 75% |
| CC(C)n1nnc2cc(-c3noc(-c4ccccc4N)n3)ccc21 [Compound 576, 2-{3-[1-(propan-2-yl)-1H-1,2,3-benzotriazol-5-yl]-1,2,4-oxadiazol-5-yl}aniline] | >5 | >6.5 | Emax [1, 5]: < 75%; Emax [2, 5]: > 75% |
| CC(C)(O)Cn1nnc2cc(-c3nc(-c4cccc5cc[nH]c45)no3)ccc21 [Compound 577, 1-{5-[3-(1H-indol-7-yl)-1,2,4-oxadiazol-5-yl]-1H-1,2,3-benzotriazol-1-yl}-2-methylpropan-2-ol] | >5 | <6.5 | Emax [1, 5]: < 75%; Emax [2, 5]: < 75% |
| N#Cc1cc(-c2nnc(-c3ccc4c(c3)ncn4CCO)o2)ccc1NCC(F)F [Compound 578, 2-[(2,2-difluoroethyl)amino]-5-{5-[1-(2-hydroxyethyl)-1H-1,3-benzodiazol-5-yl]-1,3,4-oxadiazol-2-yl}benzonitrile] | <5 | <6.5 | – |
| COc1cc(NC(C)=O)ccc1-c1nc(-c2ccncc2)no1 [Compound 582, N-{3-methoxy-4-[3-(pyridin-4-yl)-1,2,4-oxadiazol-5-yl]phenyl}acetamide] | <5 | <6.5 | – |
| CCOP(=O)(Cc1ccc(-c2noc(-c3ccc4c(c3)nnn4C(C)C)n2)cc1)OCC [Compound 583, diethyl [(4-{5-[1-(propan-2-yl)-1H-1,2,3-benzotriazol-5-yl]-1,2,4-oxadiazol-3-yl}phenyl)methyl]phosphonate] | – | – | hS1P1 B-arrestin2 SPAN [1, 5]: <75; hS1P1 cAMP SPAN [2, 5]: <75 |
| CNc1ccccc1-c1coc(-c2ccc3c(c2)nnn3C(C)C)n1 [Compound 587, N-methyl-2-{2-[1-(propan-2-yl)-1H-1,2,3-benzotriazol-5-yl]-1,3-oxazol-4-yl}aniline] | <5 | <6.5 | Emax [1, 5]: < 75%; Emax [2, 5]: < 75% |
| CCC1CC(=O)c2ccc(-c3nc(-c4cccnc4)no3)cc2O1 (centres unmarked) [Compound 588, 2-ethyl-7-[3-(pyridin-3-yl)-1,2,4-oxadiazol-5-yl]-3,4-dihydro-2H-1-benzopyran-4-one] | <5 | <6.5 | – |
| CC(C)(O)Cn1nnc2cc(-c3nc(-c4ccc5nonc5c4)no3)ccc21 [Compound 590, 1-{5-[3-(2,1,3-benzoxadiazol-5-yl)-1,2,4-oxadiazol-5-yl]-1H-1,2,3-benzotriazol-1-yl}-2-methylpropan-2-ol] | <5 | <6.5 | – |
| CCC1(CC)CC(=O)c2cc(-c3nc(-c4cccs4)no3)ccc2N1 [Compound 591, 2,2-diethyl-6-(3-(thiophen-2-yl)-1,2,4-oxadiazol-5-yl)-2,3-dihydroquinolin-4(1H)-one] | >5 | >6.5 | – |
| Cc1ccccc1-c1nc(-c2ccc3c(c2)nnn3CC(C)(C)O)no1 [Compound 593, 2-methyl-1-(5-(5-(o-tolyl)-1,2,4-oxadiazol-3-yl)-1H-benzo[d][1,2,3]triazol-1-yl)propan-2-ol] | – | – | Emax [1, 5]: > 75%; EC50 ([1]; β-arrestin2 recruitment, S1P1 CHO-K1 cells, read-out: hS1P1 B-arrestin2 pEC50 (converted)): < 10 µM; Emax [2, 5]: > 75%; EC50 ([2]; inhibition of cAMP production, S1P1 CHO-K1 cells, read-out: hS1P1 cAMP pEC50 (converted)): < 0.316 µM |

The next lines start with results.

| hS1P1 B-arrestin2 pEC50 [1, 3] | hS1P1 cAMP pEC50 [2, 4] | SMILES | further results |
| --- | --- | --- | --- |
| >5 | >6.5 | CCC1(CC)CC(=O)c2cc(-c3ncc(-c4ccccc4OC)cn3)ccc2O1 [Compound 594, 2,2-diethyl-6-(5-(2-methoxyphenyl)pyrimidin-2-yl)chroman-4-one] | – |
| >5 | >6.5 | CC(C)Oc1ccc(-c2ncc(-c3ccc4c(c3)nnn4C(C)C)cn2)cc1C#N [Compound 595, 2-isopropoxy-5-(5-(1-isopropyl-1H-benzo[d][1,2,3]triazol-5-yl)pyrimidin-2-yl)benzonitrile] | – |
| >5 | >6.5 | CC(C)Nc1ccc(-c2ncc(-c3ccc4c(c3)nnn4C(C)C)cn2)cc1C#N [Compound 596, 5-(5-(1-isopropyl-1H-benzo[d][1,2,3]triazol-5-yl)pyrimidin-2-yl)-2-(isopropylamino)benzonitrile] | – |
| >5 | >6.5 | Cc1cnccc1-c1noc(-c2ccc3c(c2)nnn3CC(C)(C)O)n1 [Compound 597, 2-methyl-1-{5-[3-(3-methylpyridin-4-yl)-1,2,4-oxadiazol-5-yl]-1H-1,2,3-benzotriazol-1-yl}propan-2-ol] | – |
| >5 | >6.5 | CNc1ccccc1-c1nc(-c2ccc3c(c2)nnn3C(C)C)no1 [Compound 599, N-methyl-2-{3-[1-(propan-2-yl)-1H-1,2,3-benzotriazol-5-yl]-1,2,4-oxadiazol-5-yl}aniline] | Emax [1, 5]: > 75%; Emax [2, 5]: < 75% |
| >5 | <6.5 | Cc1ccccc1-c1cc(-c2ccc3c(c2)nnn3C(C)C)c[nH]1 [Compound 601, 5-[5-(2-methylphenyl)-1H-pyrrol-3-yl]-1-(propan-2-yl)-1H-1,2,3-benzotriazole] | – |
| <5 | <6.5 | CC(C)n1nnc2cc(-c3noc(-c4ncccc4O)n3)ccc21 [Compound 602, 2-{3-[1-(propan-2-yl)-1H-1,2,3-benzotriazol-5-yl]-1,2,4-oxadiazol-5-yl}pyridin-3-ol] | – |
| >5 | >6.5 | CCC1(CC)CC(=O)c2cc(-c3nc(-c4cncc(S(N)(=O)=O)c4)no3)ccc2O1 [Compound 603, 5-(5-(2,2-diethyl-4-oxochroman-6-yl)-1,2,4-oxadiazol-3-yl)pyridine-3-sulfonamide] | – |
| >5 | >6.5 | CCC1(CC)CC(=O)c2cc(-c3nc(-c4sccc4OC)no3)ccc2O1 [Compound 604, 2,2-diethyl-6-(3-(3-methoxythiophen-2-yl)-1,2,4-oxadiazol-5-yl)chroman-4-one] | – |
| >5 | >6.5 | COc1ccncc1-c1nc(-c2ccc3c(c2)nnn3C(C)C)no1 [Compound 605, 3-(1-isopropyl-1H-benzo[d][1,2,3]triazol-5-yl)-5-(4-methoxypyridin-3-yl)-1,2,4-oxadiazole] | Emax [1, 5]: > 75%; Emax [2, 5]: > 75% |
| <5 | >6.5 | Cc1ccccc1-c1nc(-c2ccc3c(c2)nnn3C(C)(C)CO)no1 [Compound 609, 2-methyl-2-(5-(5-(o-tolyl)-1,2,4-oxadiazol-3-yl)-1H-benzo[d][1,2,3]triazol-1-yl)propan-1-ol] | – |
| <5 | <6.5 | COc1ccc(-c2nc(-c3ccc4c(c3)nnn4C(C)(C)CO)no2)c(C)c1 [Compound 610, 2-(5-(5-(4-methoxy-2-methylphenyl)-1,2,4-oxadiazol-3-yl)-1H-benzo[d][1,2,3]triazol-1-yl)-2-methylpropan-1-ol] | – |
